Where “and” joins values, the source holds several entries; their conditions need not be identical. Equal values may be shown once.

The text below walks through data of article PMC8710297, “Identification of potent SENP1 inhibitors that inactivate SENP1/JAK2/STAT signaling pathway and overcome platinum drug resistance in ovarian cancer” (Clinical and Translational Medicine, 2021).

The target in assay [1] is T1, SENP1 (Homo sapiens, UniProt Q9P0U3).
T1 sequence (Q9P0U3 1-644): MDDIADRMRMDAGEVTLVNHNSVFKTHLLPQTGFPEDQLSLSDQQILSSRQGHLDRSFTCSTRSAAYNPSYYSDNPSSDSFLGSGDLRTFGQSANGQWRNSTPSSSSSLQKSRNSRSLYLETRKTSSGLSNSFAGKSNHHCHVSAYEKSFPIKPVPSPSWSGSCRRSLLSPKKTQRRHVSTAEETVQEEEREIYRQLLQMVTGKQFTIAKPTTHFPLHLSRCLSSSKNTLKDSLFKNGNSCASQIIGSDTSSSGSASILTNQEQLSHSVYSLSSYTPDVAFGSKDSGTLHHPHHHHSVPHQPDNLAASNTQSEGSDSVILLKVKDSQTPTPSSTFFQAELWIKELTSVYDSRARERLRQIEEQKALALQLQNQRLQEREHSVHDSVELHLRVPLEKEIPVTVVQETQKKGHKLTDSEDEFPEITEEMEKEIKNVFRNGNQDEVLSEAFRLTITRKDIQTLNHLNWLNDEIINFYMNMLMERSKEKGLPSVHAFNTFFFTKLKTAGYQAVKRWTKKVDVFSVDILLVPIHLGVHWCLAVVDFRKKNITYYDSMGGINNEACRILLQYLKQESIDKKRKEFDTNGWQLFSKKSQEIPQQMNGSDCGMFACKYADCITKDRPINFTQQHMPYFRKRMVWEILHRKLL
Briefly: SENP1 activity in cells (SUMOylated JAK2, Western blot quantification). The class given is cell-based. Set-up: endogenous in cells; host or cells: IGROV1 CR cells. As to conditions: IGROV1 CR cells, 48 h. The procedure: (§1) (A) Collection of Momordin Ic (Mc) natural compound analogues. […] Cell proliferation was determined by the sulforhodamine B (SRB) assay. […] IGROV1 CR cells were incubated with Mc at indicated concentrations for 48 h and then harvested for Western blot for indicated proteins. […] IGROV1 CR cells were incubated with UA and then treated as in C. […] Intensity of SUMOylated JAK2 was measured by Quantity One software. […] Recombinant His‐JAK2 was SUMOylated by in vitro SUMOylation assay, and then SUMOylated JAK2 proteins were incubated with or without recombinant GST‐SENP1 together with Mc for 3 h. […] In vitro assay was performed as in (F).
(A) Synthesis of UA derivatives. Reagents and conditions: (i) Ac2O, DMAP, Pyridine, r.t.; (ii) Oxalyl chloride, CH2Cl2, r.t., overnight; (iii) amines, TEA, r.t., 0.5–4 h; (iv) NaOH a.q., MeOH/THF, r.t.; (v) amines, MeOH, reflux; (vi) K2CO3, DMF, 60°C. The detail of synthesis was included in supplemental materials. […] (C) IGROV1 CR cells treated with indicated UAMMC9 for 48 h. Cells were then harvested and lysates were resolved on sodium dodecyl sulphate‐polyacrylamide gel electrophoresis, followed by immunoblotting for indicated proteins. (D) Cellular thermal shift assay to examine the interaction of UAMMC9 with SENP1. IGROV1 CR cells were incubated with DMSO or UAMMC9 for 4 h before treatment as in Figure 2A. (E) In vitro thermal shift assay to analyze the interactions of UAMMC9 with purified GST‐SENP1(C603A). Stability of SENP1(C603A) was analyzed by using Western blot against SENP1 antibody. […] Surface of hydrophobic amino acid residues in catalytic cleft was shown in yellow and that of hydrophilic amino acid residues was shown in magenta. Key amino acid residues were highlighted. […] The pictures were generated by Chimera.
In general terms: Immunoblotting shows a protein as a band on a membrane.

In assay [2] the target is T1, SENP1. The assay is described as follows: In vitro deSUMOylation assay (SUMOylated His-JAK2 + recombinant GST-SENP1). As to conditions: read-out: SENP1 inhibition in vitro IC50. Format: biochemical. The procedure: as §1, with “(F). […]” for “(F).”
The mark [3] stands for this setting: intensity of SUMOylated JAK2, read-out: SENP1 inhibition in cells IC50.
Where [4] appears, read: recombinant GST-SENP1, SUMOylated His-JAK2, 3 h.

Turning to `CC1(C)CC[C@]2(C(=O)O)CC[C@]3(C)C(=CC[C@@H]4[C@@]5(C)CC[C@H](O[C@@H]6O[C@H](C(=O)O)[C@@H](O)[C@H](O[C@@H]7OC[C@@H](O)[C@H](O)[C@H]7O)[C@H]6O)C(C)(C)[C@@H]5CC[C@]43C)[C@@H]2C1` [Mc, Momordin Ιc], the results for the IC50 on SENP1 [1] (setting [3]) and at SENP1 [2] (setting [4]) were 31.8 µM and 19.9 µM, respectively.

For the compound `C[C@H]1[C@H](C)CC[C@]2(C(=O)O)CC[C@]3(C)C(=CC[C@@H]4[C@@]5(C)CC[C@H](O)C(C)(C)[C@@H]5CC[C@]43C)[C@H]12` [UA, ursolic acid, reference compound], the results for the IC50 at SENP1 [1] (setting [3]) and at SENP1 [2] (setting [4]) were 0.24 µM and 0.0064 µM, respectively.

Turning to `C[C@H]1[C@H](C)CC[C@]2(C(=O)NCC(=O)N(C)CCO)CC[C@]3(C)C(=CC[C@@H]4[C@@]5(C)CC[C@H](O)C(C)(C)[C@@H]5CC[C@]43C)[C@H]12` [UAMMC9], the IC50 (usually the point on the concentration scale where inhibition reaches its midpoint) at SENP1 [1] (SUMOylated JAK2, read-out: SENP1 activity in cells IC50) is 0.15 µM and 0.151 µM; at SENP1 [2] (recombinant SENP1, SUMOylated JAK2) it was 0.196 µM.
